Test results: patent US9700603B2, “Use of antidotes to coagulation inhibitors indicated in the prevention or treatment of thromboembolic pathologies” (LABORATOIRE FRANCAIS DU FRACTIONNEMENT ET DES …, priority 2013, dated 2017)

Assays:
Format in all cases: biochemical
[1] = system: thrombin generation in normal plasma; test: Thrombin generation (TGT) induced by tissue factor (0.5 pM)
Method: The effect of an overdose of FXa in normal plasma was assessed by measuring thrombin generation (TGT) following induction by tissue factor (0.5 pM) (FIG. 5, Table I). Doses of 0.03 μg/ml to 0.5 μg/ml of FXa were compared. The quantity of thrombin generated depends on the dose of FXa added.
A similar experiment was repeated in the presence of a therapeutic dose of 0.35 μg/ml of Rivaroxaban (FIG. 6, Table I). […] On the other hand, a correction of thrombin generation is obtained starting from 0.06 μg/ml (▪) up to a dose of 0.25 μg/ml (▴).

normal plasma pool [2] = test: Prothrombin time (PT) with RecombiPlastin
[3] = system: thrombin generation in normal plasma; test: Thrombin generation (TGT) induced by cephalin
Method: A series of similar experiments is carried out by inducing the initiation of coagulation by cephalin. The series of preliminary experiments mimics the extrinsic activation of coagulation. This second series of experiments mimics the intrinsic activation of coagulation. The presence of FXa in an increasing quantity in normal plasma (●) […] the speed of appearance of thrombin without changing the total quantity of thrombin generated (FIG. 7, Table II). The speed of appearance of the thrombin is correlated with the dose of FXa added. Shorter times to peak are obtained in the presence of FXa.
The effect of FXa following the induction of thrombin generation by cephalin is then measured in the presence of Rivaroxaban at 0.35 μg/ml (FIG. 8, Table II). […] The presence of FXa in an increasing concentration makes it possible to increase the quantity of thrombin generated in a dose-dependent manner, as well as to reduce the time to peak. A maximum quantity of thrombin is obtained in the case of a concentration comprised between 0.125 and 0.25 μg/ml.

normal plasma pool [4] = test: aPTT with PTT-A; conditions: rivaroxaban 0.35 μg/mL in PNP, no FXa
[5] = system: thrombin generation in normal plasma pool; test: Thrombin generation test (TGT Fluoroskan), extrinsic pathway, TF 1 pM / PL 4 μM
Method: The stock solution of rivaroxaban at 436 μg/mL is diluted in 5% DMSO in order to obtain intermediate concentrations which, added to the NPP (Normal Pool Plasma), give final concentrations of rivaroxaban in μg per mL of plasma.
(§1) The thrombin generation test consists of activating coagulation ex vivo either using a mixture of tissue factor and phospholipids, or using cephalin and then measuring the concentration of thrombin generated over time.
(§2) The reaction is started by the addition of 20 μL of Fluca-kit (substrate+CaCl2) which constitutes the start of the measurement of the appearance of thrombin. The appearance of fluorescence is measured on a fluorometer of the Fluoroskan Ascent type (ThermoLabsystems) at an excitation wavelength of 390 nm and emission wavelength of 460 nm. The thrombinograms (curves representing the intensity of fluorescence as a function of time) are then analyzed using the Thrombinoscope™ software which converts the fluorescence value to nM of thrombin by comparative calculation.

[6] = system: thrombin generation in normal plasma pool; test: Thrombin generation test (CAT), intrinsic pathway, cephalin alone
Method: as §1, §2
The reagents, the automated equipment and the experimental protocol are identical to those described in Example 1.

[7] = system: thrombin generation in normal plasma pool; test: Thrombin generation test (TGT Fluoroskan), extrinsic pathway, TF 5 pM / PL 4 μM; conditions: rivaroxaban 0.35 μg/mL in PNP, no FXa
Method: as §1, §2
The reagents, the automaton and the experimental protocol are identical to those described in Example 1. […]

[8] = Unicalibrator + 0.35 μg/ml Rivaroxaban, no hFXa
[9] = rivaroxaban 0.5 μg/mL in PNP, no FX (Table 2)
[10] = rivaroxaban 0.5 μg/ml in PNP, no FX (Table 1)
[11] = rivaroxaban 0.35 μg/ml in PNP, no FX

O=C(NC[C@H]1CN(c2ccc(N3CCOCC3=O)cc2)C(=O)O1)c1ccc(Cl)s1 [rivaroxaban]
reduction of thrombin generation versus untreated plasma ([1]; 0.35 μg/ml of Rivaroxaban): approximately 75%
Lag time [1, 8]: 10.17 min
Peak [1, 8]: 10.69 nM
ttPeak [1, 8]: 20.5 min
PT with RecombiPlastin 2G (ISI: 1.0) (normal plasma pool [2]; rivaroxaban 0.35 μg/mL in PNP, no FXa): 26 s
PT (RecombiPlastin ISI: 1.0) (normal plasma pool [2]; rivaroxaban 0.5 μg/ml in PNP, no FX): 32.5 s
effect on thrombin generation induced by cephalin ([3]; Rivaroxaban at 0.35 μg/ml): completely inhibits thrombin generation
ETP [3, 8]: 0 nM
Peak [3, 8]: 0 nM
ttPeak [3, 8]: 0 min
aPTT with PTT-A (normal plasma pool [4]): 50.5 s
effect on ability to generate thrombin from normal plasma ([5]; 0.5 μg/mL of Rivaroxaban, activation by tissue factor and phospholipids): completely destroys the ability to generate thrombin
LT (lag time) [5, 9]: 30.59 min
Peak [5, 9]: 6.83 nM
TTP (time to peak) [5, 9]: 58.81 min
mVRI (mean velocity rate index) [5, 9]: 0.24 nM/min
LT (lag time) [5, 10]: 25.5 min
Peak [5, 10]: 7.42 nM
TTP (time to peak) [5, 10]: 49.33 min
mVRI (mean velocity rate index) [5, 10]: 0.31 nM/min
effect on ability to generate thrombin from normal plasma ([6]; 0.35 μg/mL of Rivaroxaban, activation with Cephalin): completely destroys the ability to generate thrombin
ETP (endogenous thrombin potential) [6, 11]: 230.5 nM·min
LT (lag time) [6, 11]: 48.17 min
Peak [6, 11]: 8.49 nM
ST (start time) [6, 11]: 116 min
TTP (time to peak) [6, 11]: 54 min
mVRI (mean velocity rate index) [6, 11]: 1.46 nM/min
ETP (endogenous thrombin potential) [7]: 772 nM·min
LT (lag time) [7]: 11.11 min
Peak [7]: 31.32 nM
ST (start time) [7]: 67 min
TTP (time to peak) [7]: 25.33 min
mVRI (mean velocity rate index) [7]: 2.20 nM/min
